The test deals with BALB/c mice. Nature of the test: hypocalcemic test in vivo in BALB/c mice. The following applies: for biological activity as percentage activity of the hypocalcemic effect maximally achievable in this test: 100% = effect achieved by 2 μg of hCt, BALB/c mice. As to the method:
The biological activity of the analogs was determined by means of a hypocalcemic test in vivo in BALB/c mice.
The biological activity is shown as a percentage [%] activity of the hypocalcemic effect maximally achievable in this test, as is achieved by 2 μg of hCt.

The mark [1] stands for this setting: concentration of the peptides 0.01 ng/ml.
[2] abbreviates: concentration of the peptides 0.1 ng/ml.
Where [3] appears, read: concentration of the peptides 1 ng/ml.
Where [4] appears, read: concentration of the peptides 10 ng/ml.
Where [5] appears, read: relative to hCt, mouse in-vivo test.

“cyclo^17,21-[Asp^17,Orn^21]-hCt [Cyclo^17,21-[Asp^17, Om^21]-hCt]”: the “biological activity as percentage activity of the hypocalcemic effect maximally achievable in this test” value under setting [1] is 36.8%, the “biological activity as percentage activity of the hypocalcemic effect maximally achievable in this test” value under setting [2] is 68.4%, the “biological activity as percentage activity of the hypocalcemic effect maximally achievable in this test” value under setting [3] was 76.3% and the “biological activity as percentage activity of the hypocalcemic effect maximally achievable in this test” value under setting [4] is reported as 86.8%. Further, the “activity above the activity of the human calcitonin” value under setting [5] is 363 fold. Moreover, the “times more active than the original human calcitonin” value under setting [5] is listed as 360 times. Further, the “times more active than calcitonin from salmon (sCt)” value (relative to sCt, mouse in-vivo test) is “three”.

Regarding “calcitonin from salmon [sCt, reference compound]”, the “biological activity as percentage activity of the hypocalcemic effect maximally achievable in this test” value is, setting by setting: under setting [1], 21.1%; under setting [2], 51.6%; under setting [3], 63.2%.

As to “human calcitonin [hCt, reference compound]”, the “biological activity as percentage activity of the hypocalcemic effect maximally achievable in this test” value under setting [2] is 5.8%, the “biological activity as percentage activity of the hypocalcemic effect maximally achievable in this test” value under setting [3] is on record as 15.8% and the “biological activity as percentage activity of the hypocalcemic effect maximally achievable in this test” value under setting [4] is 35.2%.

Source of the values: patent US6617423B1, “Superpotent calcitonin analogs having greatly increased hypocalcemic action in vivo” (Fraunhofer-Gesellschaft zur Forderung der Angewandten …, priority 1997, dated 2003).
